Patent US20240059740A1, “CYCLIC PEPTIDES AND USES THEREOF” (PRE[…] INC., priority 2020, published 2024)
Residues, ends and D or L forms follow the SMILES beside them.

Columns and labels:
Type in all cases: cell-based, human
[1] = tested on: Twist mRNA; assay: Real time RT-PCR, Twist mRNA expression
Source text: (§1) The real-time reverse transcription polymerase chain reaction (RT-PCR) uses fluorescent reporter molecules to monitor the production of amplification products during each cycle of the PCR reaction. This combines the nucleic acid amplification and detection steps into one homogeneous assay and use of appropriate chemistries and data analysis eliminates the need for Southern blotting or DNA sequencing for amplicon identification. Its simplicity, specificity and sensitivity, together with its potential for high throughput and the ongoing introduction of new chemistries, more reliable instrumentation and improved protocols, has made real-time RT-PCR the benchmark technology for the detection and/or comparison of RNA levels.’
(§2) In order to detect and quantify the expression of specific genes at mRNA level, real-time reverse transcriptase polymerase chain reaction (Real time RT-PCR) was performed. Total RNA of samples was isolated and purified using the PureLink® RNA Mini Kit (Life technologies). The concentration of total RNA was detected by NanoDrop 2000 Spectrophotometer (Thermo Scientific). The total RNA (2000 ng) was reverse transcribed using the High-Capacity cDNA Reverse Transcription Kit (Applied Biosystems™).
(§3) The primers of target genes were TaqMan™ Gene Expression Assay for human PLAU (Hs01547054_m1), MMP-2 (Hs01548727_m1), MMP-9 (Hs00957562_m1), Snail-1 (Hs00195591_m1), Snail-2 (Hs00161904_m1), N-cadherin (Hs00983056_m1) and Twist (Hs01675818_s1). Relative quantification was done by reference to 18S ribosomal RNA (18S rRNA) and analysed using the comparative critical threshold (Ct) method
The mRNA expression of MMPs was measured using qRT-PCR. This was tested three independent times; the results are shown in Tables 9, 10 and 11 for U251, U87 cells and O81024 cells respectively. Results are reported as percent of the control cells (no treatment). Both MMP-2 and uPA were decreased in U251 by SEQ ID NO.1. […]

[2] = tested on: Snail-2 mRNA; assay: Real time RT-PCR, Snail-2 mRNA expression
Source text: as §1, §2, §3
(§4) The mRNA expression of MMPs was measured using qRT-PCR. This was tested three independent times; the results are shown in Tables 9, 10 and 11 for U251, U87 cells and O81024 cells respectively. Results are reported as percent of the control cells (no treatment). Both MMP-2 and uPA were decreased in U251 by SEQ ID NO.1.
(§5) Epithelial-mesenchymal transition (EMT) is the process by which epithelial cells acquire a migratory (metastatic) phenotype and so EMT is associated with cancer metastasis, cancer cell stemness, chemoresistance and immune resistance. Therefore, the determination of the mRNA expression of EMT markers is a valuable tool to evaluate invasion potential of cancer cells.
The ‘Snail’ superfamily is involved in cell differentiation and survival, two processes central in cancer research. Snail-1 has a pivotal role in the regulation of epithelial-mesenchymal transition (EMT) and Snail-1 expression is associated with poor prognosis in metastatic cancer, and tumours with elevated Snail-1 expression are harder to treat. […]

[3] = tested on: Snail-1 mRNA; assay: Real time RT-PCR, Snail-1 mRNA expression
Source text: as §1, §2, §3, §4, §5
The ‘Snail’ superfamily is involved in cell differentiation and survival, two processes central in cancer research. Snail-1 has a pivotal role in the regulation of epithelial-mesenchymal transition (EMT) and Snail-1 expression is associated with poor prognosis in metastatic cancer, and tumours with elevated Snail-1 expression are harder to treat. The significance of Snail-1 as a prognostic indicator, its involvement in the regulation of EMT and metastasis, and its roles in both drug and immune resistance point out that Snail-1 is an attractive target for tumour growth inhibition and a target for sensitization to cytotoxic drugs (Kaufhold et al., 2014). Twist is transcriptionally active during cell differentiation and lineage determination. During the establishment of cancer metastases by EMT, Twist acts independently of Snail to suppress E-cadherin and to upregulate N-cadherin (CDH-2) and fibronectin. Snail-2 (Slug) is another member of the SNAIL family of transcriptional activators and serves an important role in suppressing the epithelial phenotype in numerous cancer cells (Iwadate, 2016).

[4] = tested on: U87 cells; assay: MTT assay for cytotoxicity, U87; conditions: 48 hours, % viability of control
Source text: The MTT (3-[4.5-dimethylthiazol-2-yl]-2,5═diphenyl tetrazolium bromide) assay is based on a process undertaken by living cells, involving the conversion of MTT into formazan crystals. This assay is used routinely to measure the in vitro cytotoxic effects of drugs on cell lines or primary patient cells (Van Meerloo et al., 2011). The MTT assay measures mitochondrial activity, so in some instances where the peptide activates mitochondrial response, the results appear to increase the number of cells present i.e. >100% cell viability.
The aim of this experiment was to identify peptide concentrations that are active on living cells and cell viability was assessed.
The glioblastoma multiforme (GBM) cell lines used were U87 and U251 cells and patient derived cells grown as oncospheres (081024 cells). Human adherent GBM cell lines U87 and U251 were cultured in RPMI medium (Life Technologies Melbourne Australia) supplemented with 5% v/v FBS, 100 U/mL penicillin and 100 μg/mL streptomycin. 081024 cells were cultrured in NeuroCult™ NS-A Proliferation medium with 0.2% (v/v) heparin, 20 ng/mL EGF and 10 ng/mL FGF.
8×10^3 U87 and 7×10^3 U251 cells per well were seeded in 96 well plates in 200 μL serum-containing RPMI medium and incubated at 37° C. with 5% CO2 for 24 hours. After one wash with serum-free medium, 100 μL serum-free medium with different concentration of peptide SEQ ID NO:1 was added to each well. After 48 hours incubation, 10 μL of 0.5 mg/mL MTT was added and incubated for 2 hours at 37° C. Formazan crystals were dissolved by 200 μL/well dimethyl sulfoxide (DMSO) and shaking for 15 minutes. The UV absorbance was read with an iMark™ microplate absorbance reader at 595 nm (Bio-Rad Laboratories). Background absorbance was subtracted and results expressed as the % viability of control (untreated cells).

[5] = tested on: MMP-9 mRNA; assay: Real time RT-PCR, MMP-9 mRNA expression
Source text: as §1, §2, §3, §4

[6] = 081024 cells, baseline expression level = 1
[7] = U87 cells, baseline expression level = 1
[8] = U251 cells, relative to control (no treatment)

## CC(C)C[C@@H]1NC(=O)[C@H](C)NC(=O)[C@@H](NC(=O)[C@@H]2CCCN2C(=O)[C@@H](N)CC(C)C)CSSC(C)(C)CNC(=O)CC[C@@H](C(=O)N[C@@H](CCCNC(=N)N)C(N)=O)NC(=O)[C@H](CC(=O)O)NC(=O)[C@H](CC(N)=O)NC1=O [SEQ ID NO: 1, Leu-Pro-c(SSA*-Ala-Leu-Asn-Asp-Glu)-Arg-NH2] (HELM PEPTIDE1{L.P.C.A.L.N.D.E.R.[am]}|CHEM1{[CC(C)(CN[*:2])S[*:1]]}$PEPTIDE1,CHEM1,3:R3-1:R1|PEPTIDE1,CHEM1,8:R3-1:R2$$$V2.0; N-terminus assumed)
[1]; [6]
  mRNA expression, Twist: 0.94
[1]; [7]
  mRNA expression, Twist: 0.79
[1]; [8]
  mRNA expression, Twist: 0.91
[2]; [6]
  mRNA expression, Snail-2: 1.01
[2]; [7]
  mRNA expression, Snail-2: 0.94
[2]; [8]
  mRNA expression, Snail-2: 0.75
[2]; cell line not specified
  mRNA expression, Snail-2 (in words): non-statistical decrease in expression
[3]; 081024 cells, baseline expression level = 1, listed as SEQ ID NO. 1
  mRNA expression, Snail-1: 0.60
[3]; 081024 cells, baseline expression level = 1, listed as SEQ ID NO.1
  mRNA expression, Snail-1: halved
[3]; [7]
  mRNA expression, Snail-1: 0.84
[3]; U251 cells, relative to control (no treatment), listed as SEQ ID NO. 1
  mRNA expression, Snail-1: 0.42
[3]; U251 cells, relative to control (no treatment), listed as SEQ ID NO.1
  mRNA expression, Snail-1: decreased
[4]; 1 μM
  Cell viability: 96.34%
[4]; 5 μM
  Cell viability: 102.4%
[4]; 10 μM
  Cell viability: 100.1%
[4]; 50 μM
  Cell viability: 98.71%
[4]; 100 μM
  Cell viability: 102.8%
[4]; 500 μM
  Cell viability: 96.94%
[4]; 1 mM
  Cell viability: 83.41%
[5]; [6]
  mRNA expression, MMP-9: 0.63
[5]; [7]
  mRNA expression, MMP-9: 0.66
[5]; [8]
  mRNA expression, MMP-9: 0.73
